± gives the expanded uncertainty stated by the source.
Test: activity coefficient (dimensionless); of the first substance listed, at infinite dilution; xn = mol fraction of the nth substance listed
Details: Liquid, Chromatography, x1 = 0

Structure (SMILES)	activity coefficient (323.15 K)	activity coefficient (333.15 K)	activity coefficient (343.15 K)
CCCCCCCC [octane] + CCCOC[n+]1ccn(C)c1.N#C[N-]C#N	155 ± 11	135 ± 9.2	112 ± 7.7
CC(C)OC(C)C [diisopropyl ether] + CCCCCCCCn1cc[n+](COCCC)c1C.O=S(=O)([N-]S(=O)(=O)C(F)(F)F)C(F)(F)F	1.95 ± 0.13	1.86 ± 0.13	1.82 ± 0.12
CC#N [acetonitrile] + CCCOC[n+]1ccn(C)c1.N#C[N-]C#N	0.77 ± 0.05	0.78 ± 0.05	1.09 ± 0.07
CCC(C)=O [butanone] + N#C[N-]C#N.N#C[N-]C#N.c1ccc(Cn2cc[n+](COCCCOC[n+]3ccn(Cc4ccccc4)c3)c2)cc1	1.78 ± 0.12	1.55 ± 0.1	1.41 ± 0.09
CCCCCCCCCCCCC [tridecane] + CCCOC[n+]1ccn(C)c1.F[B-](F)(F)F	1640 ± 110	1630 ± 110	1630 ± 110
CCO [ethanol] + CN(C)c1cc[n+](COCCCOC[n+]2ccc(N(C)C)cc2)cc1.O=S(=O)([N-]S(=O)(=O)C(F)(F)F)C(F)(F)F.O=S(=O)([N-]S(=O)(=O)C(F)(F)F)C(F)(F)F	1.21 ± 0.08	1.11 ± 0.07	1.02 ± 0.06
ClC(Cl)(Cl)Cl [tetrachloromethane] + CCCOC[n+]1ccn(C)c1.N#C[N-]C#N	4.04 ± 0.28	4.08 ± 0.28	4.39 ± 0.3
CCCCCCCCCCC [undecane] + CCCOC[n+]1ccn(C)c1.O=S(=O)([N-]S(=O)(=O)C(F)(F)F)C(F)(F)F	89.7 ± 6.2	85.9 ± 5.9	75.3 ± 5.2
C#CCCCCC [1-heptyne] + CCCOC[n+]1ccn(Cc2ccccc2)c1.N#C[N-]C#N	6.34 ± 0.43	6.08 ± 0.41	–
c1ccsc1 [thiophene] + CCCCCCCCn1cc[n+](COCCCOC[n+]2ccn(CCCCCCCC)c2C)c1C.N#C[N-]C#N.N#C[N-]C#N	0.49 ± 0.04	0.49 ± 0.04	0.51 ± 0.04
CCCCCCC [heptane] + CN(C)c1cc[n+](COCCCOC[n+]2ccc(N(C)C)cc2)cc1.O=S(=O)([N-]S(=O)(=O)C(F)(F)F)C(F)(F)F.O=S(=O)([N-]S(=O)(=O)C(F)(F)F)C(F)(F)F	28.9 ± 2	23.3 ± 1.6	24.3 ± 1.7
CCC(C)=O [butanone] + CCCOC[n+]1ccn(C)c1.O=S(=O)([N-]S(=O)(=O)C(F)(F)F)C(F)(F)F	0.47 ± 0.04	0.43 ± 0.04	0.4 ± 0.03
CCCC(C)=O [pentan-2-one] + CCCOC[n+]1ccn(Cc2ccccc2)c1.O=S(=O)([N-]S(=O)(=O)C(F)(F)F)C(F)(F)F	0.46 ± 0.04	0.42 ± 0.04	0.4 ± 0.03
CC(C)OC(C)C [diisopropyl ether] + CCCOC[n+]1ccn(Cc2ccccc2)c1.N#C[N-]C#N	12.8 ± 0.87	12.1 ± 0.83	12 ± 0.82
Cc1cccc(C)c1 [1,3-dimethylbenzene] + CCCOC[n+]1ccn(C)c1.F[B-](F)(F)F	11 ± 0.75	10.8 ± 0.74	10.7 ± 0.73
CC(C)CO [2-methyl-1-propanol] + Cn1cc[n+](COCCCOC[n+]2ccn(C)c2)c1.O=S(=O)([N-]S(=O)(=O)C(F)(F)F)C(F)(F)F.O=S(=O)([N-]S(=O)(=O)C(F)(F)F)C(F)(F)F	1.87 ± 0.13	1.71 ± 0.11	1.5 ± 0.1
c1ccsc1 [thiophene] + CCCOC[n+]1ccn(C)c1.F[B-](F)(F)F	2.26 ± 0.15	2.27 ± 0.15	2.27 ± 0.15
CCCCCC [hexane] + CCCCCCCCn1cc[n+](COCCCOC[n+]2ccn(CCCCCCCC)c2C)c1C.N#C[N-]C#N.N#C[N-]C#N	8.9 ± 0.6	–	–
c1ccncc1 [pyridine] + CCCOC[n+]1ccc(N(C)C)cc1.O=S(=O)([N-]S(=O)(=O)C(F)(F)F)C(F)(F)F	0.43 ± 0.04	0.45 ± 0.04	0.46 ± 0.04
CC(C)OC(C)C [diisopropyl ether] + CCCCCCCCn1cc[n+](COCCC)c1C.N#C[N-]C#N	4.17 ± 0.28	4.05 ± 0.28	–
C#CCCCC [1-hexyne] + CCCCCCCCn1cc[n+](COCCCOC[n+]2ccn(CCCCCCCC)c2C)c1C.O=S(=O)([N-]S(=O)(=O)C(F)(F)F)C(F)(F)F.O=S(=O)([N-]S(=O)(=O)C(F)(F)F)C(F)(F)F	1.13 ± 0.07	1.13 ± 0.07	1.14 ± 0.07
CCO [ethanol] + CCCCCCCCn1cc[n+](COCCC)c1C.O=S(=O)([N-]S(=O)(=O)C(F)(F)F)C(F)(F)F	1.12 ± 0.07	1.02 ± 0.06	0.94 ± 0.06
CCOCC [diethyl ether] + CCCCCCCCn1cc[n+](COCCCOC[n+]2ccn(CCCCCCCC)c2C)c1C.N#C[N-]C#N.N#C[N-]C#N	2.41 ± 0.16	2.33 ± 0.16	2.13 ± 0.14

Structure (SMILES)	activity coefficient (323.15 K)	activity coefficient (333.15 K)	activity coefficient (343.15 K)
CCCCCCCCCCC [undecane] + CCCOC[n+]1ccc(N(C)C)cc1.O=S(=O)([N-]S(=O)(=O)C(F)(F)F)C(F)(F)F	55.7 ± 3.8	52.9 ± 3.6	46.6 ± 3.2
c1ccsc1 [thiophene] + CCCCCCCCn1cc[n+](COCCC)c1C.O=S(=O)([N-]S(=O)(=O)C(F)(F)F)C(F)(F)F	0.57 ± 0.04	0.52 ± 0.04	0.56 ± 0.04
CCCCCCCC [octane] + CCCCCCCCn1cc[n+](COCCCOC[n+]2ccn(CCCCCCCC)c2C)c1C.O=S(=O)([N-]S(=O)(=O)C(F)(F)F)C(F)(F)F.O=S(=O)([N-]S(=O)(=O)C(F)(F)F)C(F)(F)F	5.97 ± 0.41	5.45 ± 0.37	5.08 ± 0.35
CCCCCCCC [octane] + CCCOC[n+]1ccc(N(C)C)cc1.O=S(=O)([N-]S(=O)(=O)C(F)(F)F)C(F)(F)F	22.2 ± 1.5	20.5 ± 1.4	17.7 ± 1.2
CC1CCCC1 [methylcyclopentane] + CCCCCCCCn1cc[n+](COCCCOC[n+]2ccn(CCCCCCCC)c2C)c1C.O=S(=O)([N-]S(=O)(=O)C(F)(F)F)C(F)(F)F.O=S(=O)([N-]S(=O)(=O)C(F)(F)F)C(F)(F)F	2.52 ± 0.17	2.23 ± 0.15	2.17 ± 0.15
ClCCl [dichloromethane] + CCCOC[n+]1ccn(C)c1.N#C[N-]C#N	0.69 ± 0.05	0.74 ± 0.05	0.78 ± 0.05
CCC(C)CC [3-methylpentane] + Cn1cc[n+](COCCCOC[n+]2ccn(C)c2)c1.O=S(=O)([N-]S(=O)(=O)C(F)(F)F)C(F)(F)F.O=S(=O)([N-]S(=O)(=O)C(F)(F)F)C(F)(F)F	39.2 ± 2.7	14.4 ± 1	–
CCCCCCCCC [nonane] + CCCCCCCCn1cc[n+](COCCCOC[n+]2ccn(CCCCCCCC)c2C)c1C.O=S(=O)([N-]S(=O)(=O)C(F)(F)F)C(F)(F)F.O=S(=O)([N-]S(=O)(=O)C(F)(F)F)C(F)(F)F	8.26 ± 0.56	7.45 ± 0.51	7.1 ± 0.48
CC(C)CO [2-methyl-1-propanol] + CCCCCCCCn1cc[n+](COCCCOC[n+]2ccn(CCCCCCCC)c2C)c1C.N#C[N-]C#N.N#C[N-]C#N	0.36 ± 0.03	0.36 ± 0.03	0.35 ± 0.03
CCCCCCCCCCCCCC [tetradecane] + CCCOC[n+]1ccn(C)c1.N#C[N-]C#N	1510 ± 100	1390 ± 96	1260 ± 87
Cc1ccccc1 [toluene] + CCCOC[n+]1ccn(Cc2ccccc2)c1.N#C[N-]C#N	2.29 ± 0.16	2.26 ± 0.15	2.25 ± 0.15
CCCCCCCCCCC [undecane] + CCCOC[n+]1ccn(Cc2ccccc2)c1.N#C[N-]C#N	208 ± 14	175 ± 12	140 ± 9.6
ClC(Cl)(Cl)Cl [tetrachloromethane] + CCCOC[n+]1ccn(C)c1.F[B-](F)(F)F	8.91 ± 0.61	8.58 ± 0.59	8.19 ± 0.56
Cc1ccc(C)cc1 [1,4-dimethylbenzene] + CCCOC[n+]1ccn(Cc2ccccc2)c1.N#C[N-]C#N	3.66 ± 0.25	3.56 ± 0.24	3.46 ± 0.24
ClC(Cl)Cl [trichloromethane] + CCCOC[n+]1ccn(C)c1.N#C[N-]C#N	0.8 ± 0.05	0.85 ± 0.05	0.92 ± 0.06
C[N+](=O)[O-] [nitromethane] + CCCOC[n+]1ccn(Cc2ccccc2)c1.O=S(=O)([N-]S(=O)(=O)C(F)(F)F)C(F)(F)F	0.46 ± 0.04	0.4 ± 0.03	0.4 ± 0.03
CCC(C)=O [butanone] + CCCOC[n+]1ccn(C)c1.N#C[N-]C#N	1.27 ± 0.08	1.19 ± 0.08	1.12 ± 0.07
CCOCC [diethyl ether] + CCCOC[n+]1ccn(Cc2ccccc2)c1.F[B-](F)(F)F	6.03 ± 0.41	5.79 ± 0.39	–
C=CCCCC [hex-1-ene] + CCCOC[n+]1ccn(Cc2ccccc2)c1.O=S(=O)([N-]S(=O)(=O)C(F)(F)F)C(F)(F)F	5.09 ± 0.35	4.32 ± 0.29	4.05 ± 0.28
CC1CCCC1 [methylcyclopentane] + Cn1cc[n+](COCCCOC[n+]2ccn(C)c2)c1.O=S(=O)([N-]S(=O)(=O)C(F)(F)F)C(F)(F)F.O=S(=O)([N-]S(=O)(=O)C(F)(F)F)C(F)(F)F	16.4 ± 1.1	10.2 ± 0.7	–
CCC[N+](=O)[O-] [1-nitropropane] + CCCOC[n+]1ccn(Cc2ccccc2)c1.O=S(=O)([N-]S(=O)(=O)C(F)(F)F)C(F)(F)F	0.53 ± 0.04	0.46 ± 0.04	0.47 ± 0.04
Cc1ccccc1C [1,2-dimethylbenzene] + CCCOC[n+]1ccn(C)c1.N#C[N-]C#N	5.05 ± 0.34	5.13 ± 0.35	5.22 ± 0.36

From the NIST ThermoML archive (doi:10.1016/j.fluid.2014.11.020)
